Test results published in article PMC9856672, “SGC-CAMKK2-1: A Chemical Probe for CAMKK2” (Cells, 2023).

How the values were obtained:
[1] = target: T1, GRK4 (Homo sapiens, UniProt P32298); assay: KINOMEscan 1 μM, GRK4; assay type: binding; details: 1000 nM; Entrez GRK4; read-out: Percent Control
T1 construct: purchased Eurofins DiscoverX KINOMEscan
Description: (§1) Supplement cells-12-00287-s001.zip/File S2. KinomeScan data for the CAMKK2 probe and negative control.xlsx, sheet "SGC-CAMKK2-1" | column: Percent Control

[2] = target: T2, FLT3(D835Y) (Homo sapiens, UniProt P36888, D835Y); assay: KINOMEscan 1 μM, FLT3(D835Y); assay type: binding; details: 1000 nM; Entrez FLT3; read-out: Percent Control
T2 construct: purchased Eurofins DiscoverX KINOMEscan
Description: as §1

[3] = target: T3, TYK2(JH2domain-pseudokinase) (Homo sapiens, UniProt P29597); assay: DiscoverX KINOMEscan binding assay at 1 μM, TYK2(JH2domain-pseudokinase); details: Compound Concentration 1000 nM, read-out: Percent Control
T3 construct: TYK2(JH2domain-pseudokinase); purchased Eurofins DiscoverX KINOMEscan
Description: as §1

[4] = target: T4, CAMK2D (Homo sapiens, UniProt Q13557); assay: KINOMEscan 1 μM, CAMK2D; assay type: binding; details: 1000 nM; Entrez CAMK2D; read-out: Percent Control
T4 construct: purchased Eurofins DiscoverX KINOMEscan
Description: as §1

[5] = target: T5, KIT(V559D,T670I) (Homo sapiens, UniProt P10721, T670I/V559D); assay: KINOMEscan 1 μM, KIT(V559D,T670I); assay type: binding; details: 1000 nM; Entrez KIT; read-out: Percent Control
T5 construct: purchased Eurofins DiscoverX KINOMEscan
Description: as §1

[6] = target: T6, FGR (Homo sapiens, UniProt P09769); assay: KINOMEscan 1 μM, FGR; assay type: binding; details: 1000 nM; Entrez FGR; read-out: Percent Control
T6 construct: purchased Eurofins DiscoverX KINOMEscan
T6 sequence (P09769 whole entry): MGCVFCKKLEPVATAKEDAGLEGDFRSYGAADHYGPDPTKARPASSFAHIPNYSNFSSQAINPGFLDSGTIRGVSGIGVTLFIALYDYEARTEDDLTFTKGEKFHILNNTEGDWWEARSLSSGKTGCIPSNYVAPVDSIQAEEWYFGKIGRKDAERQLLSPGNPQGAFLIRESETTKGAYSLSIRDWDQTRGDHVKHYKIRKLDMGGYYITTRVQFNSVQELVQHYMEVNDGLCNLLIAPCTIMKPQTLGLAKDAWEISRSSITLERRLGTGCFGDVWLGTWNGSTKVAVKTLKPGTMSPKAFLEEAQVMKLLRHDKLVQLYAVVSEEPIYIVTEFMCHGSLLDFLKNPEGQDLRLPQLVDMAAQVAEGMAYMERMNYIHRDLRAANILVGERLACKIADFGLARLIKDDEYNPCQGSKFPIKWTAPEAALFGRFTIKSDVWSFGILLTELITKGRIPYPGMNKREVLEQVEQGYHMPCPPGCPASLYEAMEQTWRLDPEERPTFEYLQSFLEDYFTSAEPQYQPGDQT
Description: as §1

[7] = target: T7, TYRO3 (Homo sapiens, UniProt Q06418); assay: DiscoverX KINOMEscan binding assay at 1 μM, TYRO3; details: Compound Concentration 1000 nM, read-out: Percent Control
T7 construct: purchased Eurofins DiscoverX KINOMEscan
Description: as §1

[8] = target: T8, FAK (Homo sapiens, UniProt Q05397); assay: KINOMEscan 1 μM, FAK; assay type: binding; details: 1000 nM; Entrez PTK2; read-out: Percent Control
T8 construct: purchased Eurofins DiscoverX KINOMEscan
Description: as §1

[9] = target: T9, EIF2AK1 (Homo sapiens, UniProt Q9BQI3); assay: KINOMEscan 1 μM, EIF2AK1; assay type: binding; details: 1000 nM; Entrez EIF2AK1; read-out: Percent Control
T9 construct: purchased Eurofins DiscoverX KINOMEscan
T9 sequence (Q9BQI3 whole entry): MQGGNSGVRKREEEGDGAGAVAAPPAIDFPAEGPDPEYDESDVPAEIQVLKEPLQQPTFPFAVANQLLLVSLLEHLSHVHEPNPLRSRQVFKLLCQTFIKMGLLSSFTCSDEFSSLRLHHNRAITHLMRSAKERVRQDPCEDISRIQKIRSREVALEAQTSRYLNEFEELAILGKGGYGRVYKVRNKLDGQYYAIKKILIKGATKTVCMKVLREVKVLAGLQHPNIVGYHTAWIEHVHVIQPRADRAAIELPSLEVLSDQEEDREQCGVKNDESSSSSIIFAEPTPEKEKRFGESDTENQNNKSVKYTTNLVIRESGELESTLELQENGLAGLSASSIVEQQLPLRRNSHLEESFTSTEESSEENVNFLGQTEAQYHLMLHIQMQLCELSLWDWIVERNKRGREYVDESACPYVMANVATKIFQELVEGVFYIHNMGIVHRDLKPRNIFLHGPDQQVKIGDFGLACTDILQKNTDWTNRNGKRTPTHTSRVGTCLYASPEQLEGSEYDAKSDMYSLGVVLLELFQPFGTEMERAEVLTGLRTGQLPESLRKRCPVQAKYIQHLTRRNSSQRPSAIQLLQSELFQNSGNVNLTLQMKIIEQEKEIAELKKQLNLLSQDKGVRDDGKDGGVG
Description: as §1

[10] = target: T10, ZAK (Homo sapiens, UniProt Q9NYL2); assay: DiscoverX KINOMEscan binding assay at 1 μM, ZAK; details: Compound Concentration 1000 nM, read-out: Percent Control
T10 construct: purchased Eurofins DiscoverX KINOMEscan
T10 sequence (Q9NYL2 whole entry): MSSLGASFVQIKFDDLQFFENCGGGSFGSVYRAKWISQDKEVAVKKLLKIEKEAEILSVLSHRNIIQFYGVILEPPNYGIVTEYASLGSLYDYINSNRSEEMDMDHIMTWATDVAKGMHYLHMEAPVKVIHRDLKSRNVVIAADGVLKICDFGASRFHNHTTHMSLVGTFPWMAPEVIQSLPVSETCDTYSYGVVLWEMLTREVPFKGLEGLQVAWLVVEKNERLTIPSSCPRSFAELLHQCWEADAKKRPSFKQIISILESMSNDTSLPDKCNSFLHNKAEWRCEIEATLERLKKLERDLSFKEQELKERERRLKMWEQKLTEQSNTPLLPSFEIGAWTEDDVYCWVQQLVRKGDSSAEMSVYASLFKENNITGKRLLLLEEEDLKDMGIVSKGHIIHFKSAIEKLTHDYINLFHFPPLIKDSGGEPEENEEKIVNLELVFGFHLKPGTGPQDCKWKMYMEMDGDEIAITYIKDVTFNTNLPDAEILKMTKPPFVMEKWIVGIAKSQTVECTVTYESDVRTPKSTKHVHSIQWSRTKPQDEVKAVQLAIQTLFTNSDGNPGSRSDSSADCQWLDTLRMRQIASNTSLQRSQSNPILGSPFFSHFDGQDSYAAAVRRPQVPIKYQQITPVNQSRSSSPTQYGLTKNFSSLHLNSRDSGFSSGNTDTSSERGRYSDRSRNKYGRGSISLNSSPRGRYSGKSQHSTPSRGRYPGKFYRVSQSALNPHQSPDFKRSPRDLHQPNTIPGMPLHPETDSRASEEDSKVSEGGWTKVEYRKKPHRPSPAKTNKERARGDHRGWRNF
Description: as §1

[11] = target: T11, RET (Homo sapiens, UniProt P07949); assay: KINOMEscan 1 μM, RET; assay type: binding; details: 1000 nM; Entrez RET; read-out: Percent Control
T11 construct: purchased Eurofins DiscoverX KINOMEscan
Description: as §1

[12] = target: T12, MST2 (Homo sapiens, UniProt Q13188); assay: KINOMEscan 1 μM, MST2; assay type: binding; details: 1000 nM; Entrez STK3; read-out: Percent Control
T12 construct: purchased Eurofins DiscoverX KINOMEscan
Description: as §1

[13] = target: T13, PKMYT1 (Homo sapiens, UniProt Q99640); assay: KINOMEscan 1 μM, PKMYT1; assay type: binding; details: 1000 nM; Entrez PKMYT1; read-out: Percent Control
T13 construct: purchased Eurofins DiscoverX KINOMEscan
Description: as §1

[14] = target: T14, LTK (Homo sapiens, UniProt P29376); assay: KINOMEscan 1 μM, LTK; assay type: binding; details: 1000 nM; Entrez LTK; read-out: Percent Control
T14 construct: purchased Eurofins DiscoverX KINOMEscan
Description: as §1

[15] = target: T15, DYRK1B (Homo sapiens, UniProt Q9Y463); assay: KINOMEscan 1 μM, DYRK1B; assay type: binding; details: 1000 nM; Entrez DYRK1B; read-out: Percent Control
T15 construct: purchased Eurofins DiscoverX KINOMEscan
T15 sequence (Q9Y463 whole entry): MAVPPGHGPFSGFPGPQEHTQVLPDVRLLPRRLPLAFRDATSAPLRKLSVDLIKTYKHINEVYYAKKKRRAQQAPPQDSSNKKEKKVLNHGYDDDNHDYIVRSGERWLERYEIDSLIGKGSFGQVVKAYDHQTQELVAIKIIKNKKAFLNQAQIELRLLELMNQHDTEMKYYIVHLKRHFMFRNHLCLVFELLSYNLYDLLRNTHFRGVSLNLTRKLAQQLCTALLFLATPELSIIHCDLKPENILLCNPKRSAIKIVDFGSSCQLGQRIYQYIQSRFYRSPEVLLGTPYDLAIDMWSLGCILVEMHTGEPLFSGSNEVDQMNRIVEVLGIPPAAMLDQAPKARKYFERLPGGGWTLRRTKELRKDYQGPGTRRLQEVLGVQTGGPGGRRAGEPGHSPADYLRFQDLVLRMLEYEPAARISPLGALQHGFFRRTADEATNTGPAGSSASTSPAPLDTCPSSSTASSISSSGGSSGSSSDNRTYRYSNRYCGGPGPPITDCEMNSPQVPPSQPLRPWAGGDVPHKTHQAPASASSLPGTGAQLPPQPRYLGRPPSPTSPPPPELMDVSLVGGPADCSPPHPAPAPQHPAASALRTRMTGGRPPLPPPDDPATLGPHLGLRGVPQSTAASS
Description: as §1

[16] = target: T16, EPHB1 (Homo sapiens, UniProt P54762); assay: KINOMEscan 1 μM, EPHB1; assay type: binding; details: 1000 nM; Entrez EPHB1; read-out: Percent Control
T16 construct: purchased Eurofins DiscoverX KINOMEscan
Description: as §1

[17] = target: T17, FGFR3 (Homo sapiens, UniProt P22607); assay: KINOMEscan 1 μM, FGFR3; assay type: binding; details: 1000 nM; Entrez FGFR3; read-out: Percent Control
T17 construct: purchased Eurofins DiscoverX KINOMEscan
Description: as §1

[18] = target: T18, p38-alpha (Homo sapiens, UniProt Q16539); assay: KINOMEscan at 1 μM, p38-alpha; assay type: binding; details: 1000 nM, read-out: Percent Control
T18 construct: purchased Eurofins DiscoverX KINOMEscan
Description: (§2) Supplement cells-12-00287-s001.zip/File S2. KinomeScan data for the CAMKK2 probe and negative control.xlsx, sheet "SGC-CAMKK2-1N" | column: Percent Control

[19] = target: T19, RIOK2 (Homo sapiens, UniProt Q9BVS4); assay: KINOMEscan at 1 μM, RIOK2; assay type: binding; details: 1000 nM, read-out: Percent Control
T19 construct: purchased Eurofins DiscoverX KINOMEscan
Description: as §2

[20] = target: T20, ALK (Homo sapiens, UniProt Q9UM73); assay: KINOMEscan at 1 μM, ALK; assay type: binding; details: 1000 nM, read-out: Percent Control
T20 construct: purchased Eurofins DiscoverX KINOMEscan
T20 sequence (Q9UM73 19-1620): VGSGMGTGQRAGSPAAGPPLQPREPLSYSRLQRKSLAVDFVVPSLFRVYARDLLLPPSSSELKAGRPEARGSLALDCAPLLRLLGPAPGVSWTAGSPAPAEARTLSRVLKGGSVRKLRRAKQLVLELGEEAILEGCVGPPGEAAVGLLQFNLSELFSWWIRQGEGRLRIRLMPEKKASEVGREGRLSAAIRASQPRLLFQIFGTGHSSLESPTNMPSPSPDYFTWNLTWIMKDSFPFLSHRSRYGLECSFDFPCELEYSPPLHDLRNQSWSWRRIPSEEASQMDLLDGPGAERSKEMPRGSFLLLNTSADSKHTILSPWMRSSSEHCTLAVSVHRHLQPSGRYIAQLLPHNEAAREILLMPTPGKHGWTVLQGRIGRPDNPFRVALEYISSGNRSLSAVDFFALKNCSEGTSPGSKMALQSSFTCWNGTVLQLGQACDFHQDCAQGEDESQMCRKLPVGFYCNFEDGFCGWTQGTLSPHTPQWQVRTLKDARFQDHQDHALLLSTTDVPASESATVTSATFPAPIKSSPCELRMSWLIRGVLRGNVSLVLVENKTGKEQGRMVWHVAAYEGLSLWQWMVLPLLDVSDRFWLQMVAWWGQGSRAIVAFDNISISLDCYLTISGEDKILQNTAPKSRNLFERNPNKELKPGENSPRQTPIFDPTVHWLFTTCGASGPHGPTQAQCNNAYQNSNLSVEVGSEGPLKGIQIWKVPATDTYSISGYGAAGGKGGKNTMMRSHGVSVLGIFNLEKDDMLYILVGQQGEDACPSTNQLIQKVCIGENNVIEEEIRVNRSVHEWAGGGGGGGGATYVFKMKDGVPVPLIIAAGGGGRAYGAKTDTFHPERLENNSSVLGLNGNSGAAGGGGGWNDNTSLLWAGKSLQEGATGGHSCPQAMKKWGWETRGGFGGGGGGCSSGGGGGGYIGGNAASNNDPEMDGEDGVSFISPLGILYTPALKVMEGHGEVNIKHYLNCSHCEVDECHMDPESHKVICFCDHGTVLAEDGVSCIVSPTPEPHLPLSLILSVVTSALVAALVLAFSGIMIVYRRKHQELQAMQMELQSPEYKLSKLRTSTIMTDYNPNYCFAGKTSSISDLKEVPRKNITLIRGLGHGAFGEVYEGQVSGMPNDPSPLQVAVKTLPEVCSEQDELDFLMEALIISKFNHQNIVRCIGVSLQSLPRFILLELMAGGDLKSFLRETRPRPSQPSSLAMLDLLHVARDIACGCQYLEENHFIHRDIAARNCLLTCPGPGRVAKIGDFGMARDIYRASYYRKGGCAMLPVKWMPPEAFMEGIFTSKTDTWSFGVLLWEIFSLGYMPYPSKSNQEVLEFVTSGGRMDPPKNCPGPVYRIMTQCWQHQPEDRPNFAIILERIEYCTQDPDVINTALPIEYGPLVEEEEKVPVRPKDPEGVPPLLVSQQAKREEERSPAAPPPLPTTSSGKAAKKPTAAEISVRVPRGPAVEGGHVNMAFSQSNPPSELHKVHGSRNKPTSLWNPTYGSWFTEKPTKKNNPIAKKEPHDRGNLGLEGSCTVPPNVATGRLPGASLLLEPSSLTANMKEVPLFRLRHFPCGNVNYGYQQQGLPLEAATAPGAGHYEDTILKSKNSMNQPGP
Description: as §2

[21] = target: T21, CDK2 (Homo sapiens, UniProt P24941); assay: KINOMEscan at 1 μM, CDK2; assay type: binding; details: 1000 nM, read-out: Percent Control
T21 construct: purchased Eurofins DiscoverX KINOMEscan
Description: as §2

[22] = target: T22, PFTK1 (Homo sapiens, UniProt O94921); assay: KINOMEscan binding assay at 1 μM, PFTK1; details: Compound Concentration 1000 nM; read-out: Percent Control
T22 construct: purchased Eurofins DiscoverX KINOMEscan
Description: as §2

[23] = target: T23, PAK2 (Homo sapiens, UniProt Q13177); assay: KINOMEscan at 1 μM, PAK2; assay type: binding; details: 1000 nM, read-out: Percent Control
T23 construct: purchased Eurofins DiscoverX KINOMEscan
T23 sequence (Q13177 whole entry): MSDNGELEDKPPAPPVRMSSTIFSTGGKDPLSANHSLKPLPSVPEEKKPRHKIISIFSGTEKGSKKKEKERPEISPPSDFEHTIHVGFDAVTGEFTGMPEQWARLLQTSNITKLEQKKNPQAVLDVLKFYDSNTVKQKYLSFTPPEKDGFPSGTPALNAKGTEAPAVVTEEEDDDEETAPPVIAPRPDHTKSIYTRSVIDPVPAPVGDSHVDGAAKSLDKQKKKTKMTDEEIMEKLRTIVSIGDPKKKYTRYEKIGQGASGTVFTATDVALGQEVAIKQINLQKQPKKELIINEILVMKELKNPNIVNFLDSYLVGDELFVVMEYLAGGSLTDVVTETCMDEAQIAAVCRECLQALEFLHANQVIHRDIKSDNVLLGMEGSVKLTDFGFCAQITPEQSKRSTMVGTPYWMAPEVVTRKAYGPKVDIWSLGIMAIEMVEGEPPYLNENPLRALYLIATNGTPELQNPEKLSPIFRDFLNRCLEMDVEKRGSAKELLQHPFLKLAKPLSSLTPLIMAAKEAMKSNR
Description: as §2

[24] = target: T24, SRC (Homo sapiens, UniProt P12931); assay: KINOMEscan at 1 μM, SRC; assay type: binding; details: 1000 nM, read-out: Percent Control
T24 construct: purchased Eurofins DiscoverX KINOMEscan
Description: as §2

[25] = target: T25, RSK2(Kin.Dom.2-C-terminal) (Homo sapiens, UniProt P51812); assay: KINOMEscan at 1 μM, RSK2(Kin.Dom.2-C-terminal); assay type: binding; details: 1000 nM, read-out: Percent Control
T25 construct: RSK2(Kin.Dom.2-C-terminal); purchased Eurofins DiscoverX KINOMEscan
T25 sequence (P51812 398-740 limits assumed): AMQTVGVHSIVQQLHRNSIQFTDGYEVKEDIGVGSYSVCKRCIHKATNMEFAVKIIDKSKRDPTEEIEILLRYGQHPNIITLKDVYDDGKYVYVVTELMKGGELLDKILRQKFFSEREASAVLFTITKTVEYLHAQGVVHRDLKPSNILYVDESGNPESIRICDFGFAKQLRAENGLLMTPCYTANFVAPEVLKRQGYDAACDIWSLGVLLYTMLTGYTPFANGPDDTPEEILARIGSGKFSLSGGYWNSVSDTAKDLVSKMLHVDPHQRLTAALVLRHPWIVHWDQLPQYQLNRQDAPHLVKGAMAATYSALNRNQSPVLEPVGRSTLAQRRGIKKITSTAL
Description: as §2

[26] = target: T26, MLK3 (Homo sapiens, UniProt Q16584); assay: KINOMEscan binding assay at 1 μM, MLK3; details: Compound Concentration 1000 nM; read-out: Percent Control
T26 construct: purchased Eurofins DiscoverX KINOMEscan
Description: as §2

[27] = target: T27, GRK2 (Homo sapiens, UniProt P25098); assay: KINOMEscan at 1 μM, GRK2; assay type: binding; details: 1000 nM, read-out: Percent Control
T27 construct: purchased Eurofins DiscoverX KINOMEscan
Description: as §2

[28] = target: T28, NEK3 (Homo sapiens, UniProt P51956); assay: KINOMEscan at 1 μM, NEK3; assay type: binding; details: 1000 nM, read-out: Percent Control
T28 construct: purchased Eurofins DiscoverX KINOMEscan
Description: as §2

[29] = target: T29, NIM1 (Homo sapiens, UniProt Q8IY84); assay: KINOMEscan at 1 μM, NIM1; assay type: binding; details: 1000 nM, read-out: Percent Control
T29 construct: purchased Eurofins DiscoverX KINOMEscan
Description: as §2

[30] = target: T30, CSF1R (Homo sapiens, UniProt P07333); assay: KINOMEscan at 1 μM, CSF1R; assay type: binding; details: 1000 nM, read-out: Percent Control
T30 construct: purchased Eurofins DiscoverX KINOMEscan
Description: as §2

[31] = target: T31, RSK1(Kin.Dom.1-N-terminal) (Homo sapiens, UniProt Q15418); assay: KINOMEscan at 1 μM, RSK1(Kin.Dom.1-N-terminal); assay type: binding; details: 1000 nM, read-out: Percent Control
T31 construct: RSK1(Kin.Dom.1-N-terminal); purchased Eurofins DiscoverX KINOMEscan
Description: as §2

[32] = target: T32, INSRR (Homo sapiens, UniProt P14616); assay: KINOMEscan at 1 μM, INSRR; assay type: binding; details: 1000 nM, read-out: Percent Control
T32 construct: purchased Eurofins DiscoverX KINOMEscan
Description: as §2

## Cc1cccc(-c2cnc3occ(-c4ccc(C(=O)O)c(C5CCCC5)c4)c3c2)c1 [SGC-CAMKK2-1 (YL-36)]
[1]
  remaining binding at 1 µM: 100%
[2]
  remaining binding at 1 µM: 89%
[3]
  remaining binding at 1 µM: 100%
[4]
  remaining binding at 1 µM: 98%
[5]
  remaining binding at 1 µM: 100%
[6]
  remaining binding at 1 µM: 100%
[7]
  remaining binding at 1 µM: 100%
[8]
  remaining binding at 1 µM: 92%
[9]
  remaining binding at 1 µM: 100%
[10]
  remaining binding at 1 µM: 100%
[11]
  remaining binding at 1 µM: 98%
[12]
  remaining binding at 1 µM: 95%
[13]
  remaining binding at 1 µM: 99%
[14]
  remaining binding at 1 µM: 100%
[15]
  remaining binding at 1 µM: 100%
[16]
  remaining binding at 1 µM: 100%
[17]
  remaining binding at 1 µM: 95%

## O=C(O)c1ccc(-c2coc3ncc(-c4ccccc4)cc23)cc1Cl [SGC-CAMKK2-1N (UNC-YL-83)]
[18]
  remaining binding at 1 µM: 79%
[19]
  remaining binding at 1 µM: 93%
[20]
  remaining binding at 1 µM: 66%
[21]
  remaining binding at 1 µM: 91%
[22]
  remaining binding at 1 µM: 100%
[23]
  remaining binding at 1 µM: 78%
[24]
  remaining binding at 1 µM: 97%
[25]
  remaining binding at 1 µM: 70%
[26]
  remaining binding at 1 µM: 100%
[27]
  remaining binding at 1 µM: 55%
[28]
  remaining binding at 1 µM: 71%
[29]
  remaining binding at 1 µM: 81%
[30]
  remaining binding at 1 µM: 100%
[31]
  remaining binding at 1 µM: 99%
[32]
  remaining binding at 1 µM: 96%
